Data from US8491946B2, “Elastase inhibitor” (Shiseido Company, Ltd., priority 2010, dated 2013).
“Also recorded” adds a separate entry of the source.

Molecular target: T1, Human leukocyte-derived elastase (Homo sapiens, UniProt P08246)
T1 construct: purchased Elastin Product Co., Inc. CK828; host or cells: human leukocytes (leukocyte-derived)
T1 sequence (P08246 30-247 limits assumed): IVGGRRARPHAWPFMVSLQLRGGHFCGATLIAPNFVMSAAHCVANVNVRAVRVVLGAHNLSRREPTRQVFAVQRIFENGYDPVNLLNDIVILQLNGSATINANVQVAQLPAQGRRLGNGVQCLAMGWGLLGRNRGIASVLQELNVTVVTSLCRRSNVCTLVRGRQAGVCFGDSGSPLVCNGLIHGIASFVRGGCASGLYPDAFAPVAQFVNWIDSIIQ
Assay: elastase inhibition assay with fluorogenic substrate
Assay type: biochemical
Settings: FIG. 1; drug alone or raspberry extract combined with hydroxyproline; 60 minutes at 37° C.
Experimental: A solution containing 0.1 M HEPES and 0.5 M NaCl (pH 7.5) was used as a reaction buffer. Oxysuccinyl-(Ala)2-Pro-Val-MCA (Peptide Institute Cat. No. 3153-v) was used for the elastase substrate and dissolved in DMSO to a concentration of 80 mM followed by diluting to 0.16 mM with the reaction buffer. Human leukocyte-derived elastase (Elastin Product Co., Inc. Cat No. CK828) was diluted to 5 μg/mL with the reaction buffer.
25 μL aliquots of the 0.16 mM elastase substrate were dispensed into the wells of a 96-well plate followed by the addition of 50 μL of each drug. Next, 25 μL of ice-cooled 5 μg/mL elastase were added and incubated for 60 minutes at 37° C. followed by measuring fluorescence at 460 nm at an exciting wavelength of 369 nm. Raspberry extract BG manufactured by Maruzen Pharmaceuticals was used for the raspberry extract, L-hydroxyproline manufactured by Kyowa Hakko was used for the hydroxyproline, and Biodyne EMPP™ manufactured by Arch Personal Care Products L.P. was used for the yeast extract. Raspberry extract BG is a 1,3-butyleneglycol (50% aqueous solution) extract of raspberry fruit.

O=C(O)[C@@H]1C[C@@H](O)CN1 [hydroxyproline, L-hydroxyproline] was tested, and the elastase inhibitory effects was “elastase inhibitory effects were not demonstrated; also recorded: does not demonstrate elastase inhibitory effects alone”.
